Patent US11655450B2, “Method for inducing differentiation of stem cell into dopaminergic neural precursor cell” (S-BIOMEDICS, priority 2019, dated 2023)

Tests used:
FOXA2 and/or LMX1A = test: Immunocytochemistry of FOXA2 and/or LMX1A expression during differentiation into dopaminergic neural precursor cells; format: cell-based, human
Experimental: Cells were fixed for 10 min in a 4% paraformaldehyde solution.
In order to smoothly penetrate into the cytoplasm, […] incubated with 0.1% Trition X-100 (in PBS) for 15 min and then with 2% bovine serum albumin (BSA, in PBS) for 1 hour at room temperature.
Subsequently, the primary antibodies (see Table 1, below) were allowed to bind to the cells at 4° C. Secondary antibodies suitable for the respective primary antibody species (see Table 1, below) were used to confirm the primary antibody-bound cells.
Finally, cell nuclei were imaged. In this regard, the cells were incubated with 4′, […] (DAPI) in PBS for 10 min to stain the nuclei which were then imaged under a fluorescence microscope. Important markers were identified and analyzed.
The cells were differentiated into dopaminergic neural precursor cells in the same manner as the method of the present invention, with the exception of treating the cells with SAG and CHIR99021 at respective concentrations of 0.5 μM and 1.0 μM, or 1.0 μM and 1.5 μM, instead of 1.0 μM and 2.0 μM. With the expression of FOXA2 and/or LMX1A, this method was compared to the method of the present disclosure.

stem cells = test: Cell adhesion test with ECM; format: cell-based, human
Experimental: With respect to CELLstart and various concentrations (2-7 μg/mL) of ECM (Laminin 521), stem cells were cultured using the same protocol as in the above Examples to conduct a cell adhesion test.

Cc1c[nH]c(-c2cnc(NCCNc3ccc(C#N)cn3)nc2-c2ccc(Cl)cc2Cl)n1 [CHIR99021, 6-[[2-[[4-(2,4-dichlorophenyl)-5-(5-methyl-1H-imidazol-2-yl)-2-pyrimidinyl]amino]ethyl]amino]-3-pyridinecarbonitrile]
expression of LMX1A and En-1 (FOXA2 and/or LMX1A; markers for dopaminergic neural precursor cells, as illustrated in the Example section): upregulate the expression of LMX1A and En-1

CNC1CCC(N(Cc2cccc(-c3ccncc3)c2)C(=O)c2sc3ccccc3c2Cl)CC1.Cl.Cl.O.O (centres unmarked) [SAG]
expression of FOXA2 (FOXA2 and/or LMX1A; marker for dopaminergic neural precursor cells, as explained in the Example section): upregulate the expression of FOXA2

Laminin-521: ECM (Laminin 521) used to coat culture dishes
cell adhesion (stem cells; 2 μg/mL and 3 μg/mL): too poor adhesion to conduct the test | cell adhesion (stem cells; 4 μg/mL and 5 μg/mL): relatively high adhesion | cell state on ECM (stem cells; 6 μg/mL and 7 μg/mL): spontaneous differentiation at high frequency
